From US9518041B2, “(+)-5-(3,4-difluorophenyl)-5-[(3-methyl-2-oxopyridin-1(2H)-yl)methyl]imidazolidine-2,4-dione and drug containing same” (KAKEN PHARMACEUTICAL CO., LTD., priority 2013, dated 2016)

Assays:
human MMP-1 = molecular target: T1, human MMP-1 (Homo sapiens, UniProt P03956); assay: MMP-1 inhibition test; assay type: biochemical; conditions: read-out: Inhibitory activity (IC50, nM) MMP-1
T1 construct: purchased Calbiochem 444208
T1 sequence (P03956 100-469): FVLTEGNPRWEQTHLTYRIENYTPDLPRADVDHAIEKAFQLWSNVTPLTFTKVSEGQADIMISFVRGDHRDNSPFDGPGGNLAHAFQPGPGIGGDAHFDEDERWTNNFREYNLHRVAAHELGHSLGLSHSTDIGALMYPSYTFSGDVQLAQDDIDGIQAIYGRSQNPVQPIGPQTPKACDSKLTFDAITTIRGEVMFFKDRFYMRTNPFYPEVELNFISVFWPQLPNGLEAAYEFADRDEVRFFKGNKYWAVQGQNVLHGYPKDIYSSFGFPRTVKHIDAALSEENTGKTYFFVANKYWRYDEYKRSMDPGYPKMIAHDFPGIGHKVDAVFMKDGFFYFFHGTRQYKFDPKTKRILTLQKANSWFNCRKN
Method: (§1) MMP inhibition tests can be carried out, for example, using a fluorescent synthetic substrate based on the methods described in Bickett et al. (D. Mark Bickett et al., Anal. Biochem., 1993, 212, 58-64) and Nagase et al. (H. Nagase et al., J. Biol. Chem., 1994, 269, 20952-20957). The method for each MMP inhibition test is shown below.
180 μL (100 ng) of human MMP-1 (Calbiochem #444208) was mixed with 20 μL of 10 mM p-amino phenyl mercuric acetate (APMA), and activated by reacting at 37° C. for 1 hour. 20 μL of the resultant enzyme solution was diluted to 90 μL with an assay buffer A. The mixture was added to 90 μL of a 20 μM fluorescent substrate (Dnp-Pro-Cha(β-cyclohexylalanyl)-Gly-Cys(Me)-His-Ala-Lys(Nma)-NH2) (SEQ ID NO: 2) prepared with an assay buffer B, and reacted at 37° C. for 5 hours. Enzyme activity was then determined by measuring with a fluorescence intensity meter (Labsystems, Fluoroskan Ascent) at an excitation wavelength of 355 nm and a measurement wavelength of 460 nm.
(§2) From the enzyme activity in the presence or the absence of the test substance, the inhibition rate was determined, and the 50% inhibitiory concentration (IC50) of the test substance was calculated.

human MMP-3 = molecular target: T2, human MMP-3 (Homo sapiens, UniProt P08254); assay: MMP-3 inhibition test; assay type: biochemical; conditions: read-out: Inhibitory activity (IC50, nM) MMP-3
T2 construct: purchased Calbiochem 444217
Method: as §1
90 μL (1.5 ng) of human MMP-3 (Calbiochem #444217) prepared with an assay buffer A was added to 90 μL of a 20 μM fluorescent substrate NFF-3 (MOCAc((7-methoxycoumarin-4-yl)acetyl)-Arg-Pro-Lys-Pro-Val-Glu-Nva-Trp-Arg-Lys(Dnp)-NH2, Peptide Institute Inc., #3168-v) (SEQ ID NO: 4) prepared with an assay buffer B, and reacted at 37° C. for 4 hours. Enzyme activity was then determined by measuring with a fluorescence intensity meter (Labsystems, Fluoroskan Ascent) at an excitation wavelength of 320 nm and a measurement wavelength of 405 nm.
as §2

[1] = test system: auricular oedema induced by TPA; assay: Inhibition test of auricular oedema induced by single application of TPA in mouse; assay type: in vivo, BALB/c mice
Method: Auricular oedema was induced by applying 54 μmol/L TPA-acetone solution on both the inner and outer sides of the left ear of BALB/c mice (application volume of 54 μmol/L TPA-acetone solution is 10 μL for each side of the left ear (i.e. 1.08 nmol TPA/auricle)). For a non-induced group, acetone was similarly applied instead of the 54 μmol/L TPA-acetone solution. […] Auricle thickness was measured under ether anesthesia the day before TPA application and 6 hours after TPA application for evaluation of the auricular oedema inhibition effect of the test substance based on the increase in auricle thickness as an index.
The auricular oedema inhibition rate (%) of the test substance was calculated based on the following formula using (A) the average value of the increase in auricular thickness of the group administered with the test substance, (B) the average value of the increase in auricular thickness of the non-induced group, and (C) the average value of the increase in auricular thickness of the control group. […]
The auricular oedema inhibition rate (%) of etanercept was calculated based on the following formula using (B) the average value of the increase in auricular thickness of the non-induced group, (D) the average value of the increase in auricular thickness of the etanercept group, and (E) the average value of the increase in auricular thickness of the hIgG group. […]

human MMP-14 = molecular target: T3, human MMP-14 (Homo sapiens, UniProt P50281); assay: MMP-14 inhibition test; assay type: biochemical; conditions: read-out: Inhibitory activity (IC50, nM) MMP-14
T3 construct: purchased Calbiochem 475935
Method: as §1
90 μL (1.9 ng) of human MMP-14 (Calbiochem #475935) prepared with an assay buffer A was added to 90 μL of a 20 μM fluorescent substrate (Dnp-Pro-Cha-Gly-Cys(Me)-His-Ala-Lys(Nma)-NH2) (SEQ ID NO: 2) prepared with an assay buffer B, and reacted at 37° C. for 5 hours. Enzyme activity was then determined by measuring with a fluorescence intensity meter (Labsystems, Fluoroskan Ascent) at an excitation wavelength of 355 nm and a measurement wavelength of 460 nm.
as §2

T2 sequence (P08254 100-272 limits assumed): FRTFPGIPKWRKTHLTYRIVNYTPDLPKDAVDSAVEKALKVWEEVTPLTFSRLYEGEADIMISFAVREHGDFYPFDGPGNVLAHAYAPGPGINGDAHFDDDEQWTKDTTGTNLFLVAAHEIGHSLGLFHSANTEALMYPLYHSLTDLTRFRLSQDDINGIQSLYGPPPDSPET

In the case of `Cc1cccn(CC2(c3ccc(F)c(F)c3)NC(=O)NC2=O)c1=O` (single isomer, unassigned; (+)) [(+)-5-(3,4-difluorophenyl)-5-[(3-methyl-2-oxopyridin-1(2H)-yl)methyl]imidazolidine-2,4-dione], the IC50 (human MMP-1) is reported as > 10000 nM, the IC50 (human MMP-3) is reported as > 10000 nM and the “Auricular oedema inhibition rate (%)” value ([1]; BALB/c mice, topical 1 w/v % solution, 10 μL each side of left ear, 1 hour before TPA, auricle thickness 6 hours after TPA) is reported as 62%. For the same molecule, the “Etanercept ratio (inhibition rate of test substance / inhibition rate of etanercept)” value ([1]; etanercept 1 mg/mouse intravenously as positive control) was 3.4 and the IC50 (human MMP-14) was > 10000 nM.
